Results from patent US8889840B2, “Vascular leakage inhibitor” (Industry-Academic Cooperation Foundation, Yonsei University, priority 2009, dated 2014).

Key:
[1] = system: human retinal endothelial cells (HRECs); test: Serum depletion-induced apoptosis of HRECs, MTT assay and cell morphology; assay type: cell-based; details: serum-free medium, 0.1-10 μg/mL
Procedure: HRECs (3×10^4 cells/well) were seeded on a 24-well plate in M199 medium containing 20% fetal bovine serum. The next day, the cells were transferred to a medium containing […] Sac0601 (FIG. 4a) or 0.1-10 μg/mL Sac0504 (FIG. 4b). Cell viability was determined by MTT assay 48 hours later. FIGS. 5a-5c show the result of observing cell morphologies.
Human umbilical vein endothelial cells (HUVECs) and human retinal endothelial cells (HRECs) purchased from Cell Systems (USA) were seeded on a 100-mm culture dish in M199 medium (Life Technologies, USA) containing 20% (w/v) fetal bovine serum (FBS, HyClone, Canada), 100 units/mL penicillin (Invitrogen, USA), 100 μg/mL streptomycin (invitrogen, USA), 3 ng/mL basic fibroblast growth factor (bFGF, Upstate Biotechnology, USA) and 5 units/mL heparin and cultured in a 5% CO2 incubator at 37° C.
Also, HRECs were treated with the compounds synthesized in Synthesis Example 5 and MIT assay was performed 48 hours later in the same manner as described above.
Also, the acid compound wherein the methyl ester formed by the introduction of the ester group was hydrolyzed was synthesized to provide improved water solubility and activity. MYT assay was performed for the compounds synthesized in Synthesis Example 6 in the same manner as described above 48 hours after treatment.
Their ability of inhibiting apoptosis was confirmed again for HRECs. HRECs (3×10^4 cells/well) were seeded on a 24-well plate in M199 medium (1 mL) containing 20% fetal bovine serum, Next day, the cells were transferred to serum-free M199 medium containing 0.1-10 μg/ml. Sac060.1 (FIG. 4a) or 0.1-10 μg; mL Sac0504 (FIG. 4b). Cell viability was determined by MTF assay in the same manner as in Test Example 1.
Their ability of inhibiting apoptosis was confirmed again for HRECs.

HUVECs = test: VEGF-induced actin stress fibers in HUVECs, rhodamine phalloidin staining; assay type: cell-based, human; details: 10 μg/mL pretreatment 1 hour, 20 ng/mL VEGF
Procedure: Confluent HUVECs were pretreated with the compounds (10 μg/mL) for 60 minutes before treating with 20 ng/mL VEGF (1 hr). The cells were then stained with rhodamine phalloidin.
It is known that the change in the actin structure of the cytoskeleton is closely related with the permeability of vascular endothelial cells. Increased permeability of vascular endothelial cells leads to increased formation of actin stress fibers and decrease of cortical actin ring structures. Based on this, the ability of inhibiting vascular endothelial permeability of the synthesized Rk1 derivatives was screened. Confluent HUVECs were pretreated with the synthesized compounds (10 μg/mL) for 1 hour before treating with 20 ng/mL VEGF (Upstate Biotechnology). Subsequently, the cells were fixed with 4% paraformaldehyde for 20 minutes at room temperature and washed 3 times with PBS (pH 7.4). Then, the cells were permeabilized with 0.1% Triton X-100/PBS and reacted with 0.1 mg/mL rhodamine phalloidin (Molecular Probes) for 1 hour. Then, the cells were observed under a fluorescence microscope (Olympus).

HRECs [2] = test: Stability of tight junctions (TJs) at cell-cell contacts in VEGF-treated HRECs, anti-occludin immunostaining; assay type: cell-based, human; details: 10 μg/mL 1 hour, then 20 ng/mL VEGF 1 hour
Procedure: In FIG. 8a, confluent HRECs were pretreated with Sac0601 (panel A in FIG. 8a) or Sac0504 (panel B in FIG. 8a) for 60 minutes before treating with 20 ng/ml. VEGF (1 hr). The cells were then stained with occludin antibody.
(§1) Confluent HRECs were treated with 10 μg/mL Sac0601 (FIG. 8a, panel A) or Sac0504 (FIG. 8a, panel B) for 1 hour and then with 20 ng/mL. VEGF for 1 hour. Subsequently, the cells were fixed at room temperature for 20 minutes with 4% paraformaldehyde and permeabilized with 0:1% Triton X-100/PBS. Then, the cells were incubated in PBS blocking solution containing 5% normal goat serum and 0.05% Tween-20. The cells were then reacted with anti-occludin antibody (Zymed Laboratories Inc.). The result was visualized with fluorescein-conjugated anti-mouse antibody (Vector Lab.). Also, western blotting was conducted for the cell lysate. The cell lysate was fractionated with SDS-PAGE and then transferred to polyvinyl difluoride membrane. The blocked membrane was reacted with anti-occludin antibody (Zymed Laboratories Inc.) and the immune response band was visualized with the chemiluminescence reagent obtained from Amersham Biosciences, Inc.

HRECs [3] = test: Permeability of HRECs on transwell filter, labelled sucrose; assay type: cell-based, human; details: 10 μg/mL 60 minutes, with or without 20 ng/mL VEGF
Procedure: HRECs were seeded on a transwell filter. After reaching confluency, the cells were pretreated with Sac0601 (FIG. 10a) and Sac0504 (FIG. 10b) for 60 minutes before treating with 20 ng/ml. VEGF (1 hr). The permeability of HRECs was determined by measuring radiation of […] (1 μCi/μL) diffused below the transwell using a liquid scintillation counter.
The effect of Sac0601 and Sac0504 on vascular permeability was analyzed. HRECs were seeded on a transwell filter (Corning Costar). After reaching confluency, the cells were cultured in M199 medium containing 1% FBS for 3 hours and treated with 10 μg/mL. Sac0601 (FIG. 10a) or Sac0504 (FIG. 10b) for 60 minutes, with or without pretreatment with 20 ng/mL VEGF for 60 minutes. Then, [^3H]sucrose (1 μCi [0.037 MBq.]/μL or 50 μL (0.8 μCi [0.0296 MBq])/mL, Amersham Pharmacia) were added. 30 minutes later, radiation diffused below the transwell was measured using a liquid scintillation counter (Wallac, PerkinElmer). Measurement was made at least four locations.

occludin = test: Occludin western blotting of HREC lysate; assay type: cell-based, human; details: HRECs, pretreatment 60 minutes, then 20 ng/mL VEGF 1 hour
Procedure: In FIG. 8b, confluent HRECs were pretreated with Sac0601 (10 μg/mL) for 60 minutes before treating with 20 ng/mL VEGF (1 hr). Then, cell lysate was subjected to western blotting using anti-occludin antibody.
as §1

C57/BL6 mouse = test: Vascular leakage induced by VEGF in mouse retina, FITC-dextran; assay type: in vivo; details: VEGF 50 ng and compound 10 μg into the vitreous body, 24 hours
Procedure: VEGF (50 ng) and Sac0601 (10 μg) were injected into the vitreous body of C57/BL6 mouse. An excipient (DMSO) was injected into the other eye. 24 hours after the injection, 100 μL FITC-dextran (30 mg/mL in PBS, Sigma) was injected into the left ventricle. After waiting for about 2 minutes for circulation of the tracer, the eyes were taken out and fixed immediately in 4% PFA, Then, the retina was taken out and observed under an optical microscope.

Structure (SMILES) | ability of protecting retinal vascular endothelial cells from apoptosis induced by the removal of serum (MTT) [1] | cortical actin ring structure (HUVECs) | formation of actin stress fibers induced by VEGF (HUVECs) | redistribution of TJs into the cytoplasm or destabilizing at the cell membrane induced by VEGF (HRECs [2]) | stability of TJs between cells (HRECs [2]) | permeability of the vascular endothelial cells (HRECs [3]) | occludin (western blotting) (occludin) | vascular leakage induced by VEGF (C57/BL6 mouse)
CC(C)CCC[C@@H](C)[C@H]1CC[C@H]2[C@@H]3CC=C4C[C@@H](OC5CCCCO5)CC[C@]4(C)[C@H]3CC[C@]12C (some centres unmarked) [Sac0504] | have the ability of protecting the retinal vascular endothelial cells from apoptosis | increased the cortical actin ring structure | inhibited the formation of actin stress fibers induced by VEGF | could be inhibited | enhanced | inhibiting permeability of the vascular endothelial cells | – | –
CC(=O)OCC1OC(OC2CCC3(C)C(=CCC4C3CCC3(C)C(C(C)CCCC(C)C)CCC43)C2)C=CC1OC(C)=O (centres unmarked) [Sac0601] | have the ability of protecting the retinal vascular endothelial cells from apoptosis | increased the cortical actin ring structure | inhibited the formation of actin stress fibers induced by VEGF | could be inhibited | more effective in enhancing the stability of TJs than Sac0504 | inhibiting permeability of the vascular endothelial cells | results in decrease of occludin | greatly decreases
